Test results as given in article PMC10247784, “Physiological activation of human and mouse bitter taste receptors by bile acids” (Communications Biology, 2023).

Assays:
[1] = test system: T2R02 of Latimeria chalumnae; design: method as in PMID 33355666; conditions: cited from earlier work
[2] = target: T1, mouse Tas2r105 (Mus musculus, UniProt Q9JKT4); assay: Calcium imaging assay (FLIPR), HEK293T-Gα16gust44 cells transfected with mouse Tas2r105; format: cell-based
T1 construct: expressed in transfected cells; host or cells: HEK293T-Gα16gust44
T1 sequence (Q9JKT4 1-300): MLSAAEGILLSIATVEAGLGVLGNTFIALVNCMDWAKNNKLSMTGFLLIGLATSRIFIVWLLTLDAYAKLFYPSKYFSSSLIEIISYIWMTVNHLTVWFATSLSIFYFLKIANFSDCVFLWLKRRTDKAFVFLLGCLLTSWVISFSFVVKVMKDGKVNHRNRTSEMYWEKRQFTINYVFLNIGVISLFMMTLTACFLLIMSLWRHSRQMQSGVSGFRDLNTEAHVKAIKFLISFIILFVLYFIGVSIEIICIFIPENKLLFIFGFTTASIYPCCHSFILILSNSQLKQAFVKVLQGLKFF
Protocol: This set of bile acids was chosen because of their commercial availability in high purities, their diversity within the class of bile acids and their previous detection and quantitation in human blood. Stock solutions were prepared in DMSO.
As basal growth medium for the HEK293T-Gα16gust44 cell line[17],[59] served Dulbecco’s modified eagle medium (DMEM) (Thermo Fisher Scientific, Darmstadt, Germany) supplemented with 10 % fetal bovine serum (Sigma-Aldrich, Steinheim, Germany), 2 mM L-glutamine (Sigma-Aldrich, Steinheim, Germany), 100 units/ml penicillin (Sigma Aldrich, Steinheim, Germany) and 100 µg/ml streptomycin (Sigma Aldrich, Steinheim, Germany). Growth conditions were 37 °C, 5 % CO2 and saturated air-humidity[60].
HEK293T-Gα16gust44 cells were seeded on poly-D-lysine (10 µg/ml) coated 96-well plates to reach a confluence of 40-60 % the next day. For transient transfection 150 ng of plasmid DNA containing the receptor of interest and 0.3 µl lipofectamine 2000 (Thermo Fisher Scientific, Darmstadt, Germany) per well were used and transfection took place according to the manual of lipofectamine 2000. […] The empty vector DNA (mock) was transfected as negative control[14],[41].
Cells were loaded using the calcium-sensitive fluorescent dye Fluo-4-AM (Abcam, Cambridge, Great Britain) in the presence of 2.5 mM probenecid (Sigma-Aldrich, Steinheim, Germany) the day after transfection[13],[41]. 1 h after loading, cells were washed with C1 buffer using a BioTek Cell Washer, incubated in the dark for half an hour and washed again. For automated agonist application and measurement of fluorescence changes, a FLIPR^TETRA device (Molecular Devices, San José, United States) was used. Viability of cells was tested by application of 100 nM Somatostatin 14 (Bachem, Bubendorf, Switzerland)[42].
Measured data were negative control corrected by subtracting the signal of the mock-transfected cells and exported to Microsoft Excel using the FLIPR software ScreenWorks 4.2. In Microsoft Excel software, standardization of maximum fluorescence intensities to the basal fluorescence and normalization to the buffer-only control was done to calculate the relative fluorescence changes (ΔF/F).
Initial screening experiments performed in duplicate wells were confirmed by at least one replication and representative traces were selected for display. All dose-response relationships were determined by three independent experiments (biological replicates) performed in duplicates (technical replicates). Threshold concentrations, defined as lowest substance concentrations leading to statistically significant elevated fluorescence changes in receptor-transfected cells compared with empty vector-transfected cells, were determined using SigmaPlot with Student’s t-test to evaluate statistical significance (p < 0.01).

C[C@H](CCC(=O)O)[C@H]1CC[C@H]2[C@@H]3CC[C@@H]4C[C@H](O)CC[C@]4(C)[C@H]3C[C@H](O)[C@]12C [Deoxycholic Acid, deoxycholic acid]
Activation of T2R02 [1]: activate
RLU ([2]; Time 0 s): 0 RLU
RLU ([2]; Time 2 s): -7.941 RLU
RLU ([2]; Time 4 s): 8.425 RLU
RLU ([2]; Time 6 s): -2.576 RLU
RLU ([2]; Time 8 s): 14.8013 RLU
RLU ([2]; Time 12 s): -9.724 RLU
RLU ([2]; Time 14 s): -8.452 RLU
RLU ([2]; Time 16 s): 1.889 RLU
RLU ([2]; Time 18 s): -2.18 RLU
RLU ([2]; Time 18.781 s): -20.0658 RLU
RLU ([2]; Time 20.781 s): -17.0266 RLU
RLU ([2]; Time 22.781 s): -39.9091 RLU
RLU ([2]; Time 24.781 s): 0.577 RLU
RLU ([2]; Time 26.781 s): -0.6161 RLU
RLU ([2]; Time 28.781 s): 4.903 RLU
RLU ([2]; Time 30.781 s): -6.367 RLU
RLU ([2]; Time 32.781 s): -0.4375 RLU
RLU ([2]; Time 34.781 s): 4.775 RLU
RLU ([2]; Time 36.781 s): -8.6591 RLU
RLU ([2]; Time 38.781 s): -14.3055 RLU
RLU ([2]; Time 40.781 s): 9.418 RLU
RLU ([2]; Time 42.781 s): -11.7018 RLU
RLU ([2]; Time 44.781 s): -11.9371 RLU
RLU ([2]; Time 46.781 s): 4.597 RLU
RLU ([2]; Time 48.781 s): 27.0511 RLU
RLU ([2]; Time 50.781 s): -9.756 RLU
RLU ([2]; Time 52.781 s): 20.1786 RLU
RLU ([2]; Time 54.781 s): 19.4961 RLU
RLU ([2]; Time 56.781 s): 5.269 RLU
RLU ([2]; Time 58.781 s): 38.5167 RLU
RLU ([2]; Time 60.781 s): 24.5618 RLU
RLU ([2]; Time 62.781 s): 36.5379 RLU
RLU ([2]; Time 64.781 s): 21.9337 RLU
RLU ([2]; Time 66.781 s): 35.0054 RLU
RLU ([2]; Time 68.781 s): 34.4928 RLU
RLU ([2]; Time 70.781 s): 42.8161 RLU
RLU ([2]; Time 72.781 s): 53.1321 RLU
RLU ([2]; Time 74.781 s): 54.3186 RLU
RLU ([2]; Time 76.781 s): 66.018 RLU
RLU ([2]; Time 78.781 s): 45.8125 RLU
RLU ([2]; Time 80.781 s): 59.5249 RLU
RLU ([2]; Time 82.781 s): 62.7416 RLU
RLU ([2]; Time 84.781 s): 68.7087 RLU
RLU ([2]; Time 86.781 s): 90.9377 RLU
RLU ([2]; Time 88.781 s): 81.07 RLU
RLU ([2]; Time 90.781 s): 72.636 RLU
RLU ([2]; Time 92.781 s): 97.4301 RLU
RLU ([2]; Time 94.781 s): 105.551 RLU
RLU ([2]; Time 96.781 s): 100.341 RLU
RLU ([2]; Time 98.781 s): 103.309 RLU
RLU ([2]; Time 100.781 s): 117.485 RLU
RLU ([2]; Time 102.781 s): 130.646 RLU
RLU ([2]; Time 104.781 s): 147.286 RLU
RLU ([2]; Time 106.781 s): 108.305 RLU
RLU ([2]; Time 108.781 s): 142.084 RLU
RLU ([2]; Time 110.781 s): 147.264 RLU
RLU ([2]; Time 112.781 s): 118.273 RLU
RLU ([2]; Time 114.781 s): 167.002 RLU
RLU ([2]; Time 116.781 s): 149.721 RLU
RLU ([2]; Time 118.781 s): 160.265 RLU
RLU ([2]; Time 120.781 s): 160.404 RLU
RLU ([2]; Time 122.781 s): 193.86 RLU
RLU ([2]; Time 124.781 s): 179.508 RLU
RLU ([2]; Time 126.781 s): 161.679 RLU
RLU ([2]; Time 128.781 s): 158.603 RLU
RLU ([2]; Time 130.781 s): 180.418 RLU
RLU ([2]; Time 132.781 s): 180.045 RLU
RLU ([2]; Time 134.781 s): 177.913 RLU
RLU ([2]; Time 136.781 s): 194.619 RLU
RLU ([2]; Time 137.562 s): 177.939 RLU
RLU ([2]; Time 143.562 s): 180.507 RLU
RLU ([2]; Time 149.562 s): 188.634 RLU
RLU ([2]; Time 155.562 s): 199.157 RLU
RLU ([2]; Time 161.562 s): 206.349 RLU
RLU ([2]; Time 167.562 s): 208.396 RLU
RLU ([2]; Time 173.562 s): 211.199 RLU
RLU ([2]; Time 179.562 s): 201.145 RLU
RLU ([2]; Time 185.562 s): 195.662 RLU
RLU ([2]; Time 191.562 s): 211.659 RLU
RLU ([2]; Time 197.562 s): 209.959 RLU
RLU ([2]; Time 203.562 s): 191.361 RLU
RLU ([2]; Time 209.562 s): 208.831 RLU
RLU ([2]; Time 215.562 s): 204.186 RLU
RLU ([2]; Time 221.562 s): 168.101 RLU
RLU ([2]; Time 227.562 s): 191.058 RLU
RLU ([2]; Time 233.562 s): 174.166 RLU
RLU ([2]; Time 239.562 s): 185.934 RLU
RLU ([2]; Time 245.562 s): 176.351 RLU
RLU ([2]; Time 293.562 s): 157.143 RLU
RLU ([2]; Time 299.562 s): 147.048 RLU
RLU ([2]; Time 305.562 s): 138.332 RLU
RLU ([2]; Time 311.562 s): 135.378 RLU
RLU ([2]; Time 317.562 s): 138.908 RLU
RLU ([2]; Time 323.562 s): 128.724 RLU
RLU ([2]; Time 329.562 s): 125.639 RLU
RLU ([2]; Time 335.562 s): 124.441 RLU
RLU ([2]; Time 341.562 s): 111.174 RLU
RLU ([2]; Time 347.562 s): 105.923 RLU
RLU ([2]; Time 353.562 s): 95.2183 RLU
RLU ([2]; Time 359.562 s): 94.5256 RLU
Activation threshold concentration Tas2r105 ([2]; p < 0.01 vs empty vector): 10 µM
